Measurements published in PMC11053983, “Beyond One-Size-Fits-All: Tailoring Teicoplanin Regimens for Normal Renal Function Patients Using Population Pharmacokinetics and Monte Carlo Simulation” (Pharmaceutics, 2024).

Experiments:
[1] = Single 200 mg IV infusion (30 min) PK in 12 healthy adults, noncompartmental analysis; assay type: in vivo, human; conditions: n = 12; for Cmax: plasma, HPLC-MS/MS
Description: (§1) A 200 mg dose of teicoplanin in 100 mL of normal saline was administered intravenously to subjects over 30 min. Venous blood samples (6 mL each) were collected into heparinized tubes at 33, 36, 45, and 90 min, and 4, 8, 48–120, and 168–240 h after starting the infusion. Eight sampling points were used per subject to analyze PK parameters via noncompartmental and population PK methods.
(§2) Plasma levels of teicoplanin were quantified using tandem mass spectrometry coupled with HPLC (HPLC-MS/MS). The analytical system utilized included an LC-40 HPLC unit from Shimadzu Co. (Kyoto, Japan) paired with a Gemini C18 analytical column from Phenomenex (Torrance, CA, USA). A SCIEX 4500 QTRAP mass spectrometer (Sciex, Redwood City, CA, USA) facilitated the MS-based detection. Calibration standards were prepared by combining 100 μL of a reference solution with 10 μL of a vancomycin internal standard (concentration of 100 μg/mL) in microcentrifuge tubes. To this mixture, 400 μL of acetonitrile was added to precipitate proteins, followed by vortex mixing for 60 s. Following centrifugation at 12,000 rpm for 2 min at 4 °C, the clear supernatant was diluted 10-fold with deionized water. A 10 μL sample of this solution was then introduced into the HPLC-MS/MS for analysis. In a parallel procedure for plasma samples, after the addition of the vancomycin internal standard and acetonitrile-induced protein precipitation, the sample was processed like that of the calibration standard preparation before HPLC-MS/MS analysis. The teicoplanin concentration in the plasma was determined by comparing the peak area ratio of teicoplanin to the internal standard and employed a batch-specific calibration curve equation, adjusted for 1/x^2 weighting.
A noncompartmental analysis (NCA) was completed to evaluate the plasma concentration–time profiles of teicoplanin using the R programming language and the NonCompart package. The following PK parameters were assessed: maximum observed plasma concentration (Cmax), time of last measurable concentration (Tlast), concentration corresponding to Tlast (Clast), area under the plasma concentration–time curve (AUC) from the start of dosing to the last quantifiable concentration (AUClast), AUC from the start of dosing to infinity (AUCinf), area under the first moment curve (AUMC) from 0 h to the Tlast (AUMClast), AUMC extrapolated to infinity, based on the last observed concentration (AUMCinf), mean residence time from 0 h to infinite (MRTinf), total body clearance as determined through NCA (CLNCA), volume of distribution (Vd) determined via NCA (VzNCA), steady-state Vd determined via NCA (VssNCA), and terminal elimination half-life (t1/2λz). Cmax, Tlast, and Clast were determined directly from the observed data. AUClast and AUMClast were calculated employing the linear-up and log-down trapezoidal method. AUCinf was estimated by adding Clast/λz to AUClast, where λz is the terminal elimination rate constant, which was determined by log-linear regression of the terminal phase plasma concentrations. AUMCinf was calculated using the following formula: AUMClast + (Tlast × Clast)/λz + Clast/λz^2, MRTinf as AUMCinf/AUCinf—infusion time/2, CLNCA as dose/AUCinf, VzNCA as CLNCA/λz, VssNCA as MRTinf × CLNCA, and t1/2λz as ln(2)/λz.

[2] = Population PK analysis (NONMEM, three-compartment model), 12 healthy adults, 200 mg IV; assay type: in vivo; conditions: for CL, total clearance / AUC (dose/CL) / VC, central volume of distribution / Vss, steady-state volume of distribution: individual parameters; for CL, total clearance: n = 12; for 1st t1/2 / 2nd t1/2 / 3rd t1/2: three-compartment model
Description: as §1, §2
The PK analysis of teicoplanin was completed using a nonlinear mixed-effects modeling technique with NONMEM software (version 7.5, ICON Clinical Research LLC, North Wales, PA, USA). Parameter estimation for both the observed and the unaccounted-for random effects was achieved by applying the First-Order Conditional Estimation with Interaction approach. This method facilitates the consideration of interactions between the unexplained interindividual variability (IIV) of PK parameters and the residual unexplained variability in the observed concentrations. To model the PK profiles of teicoplanin, we used one-compartment (ADVAN1 TRANS2), two-compartment (ADVAN3 TRANS4), and three-compartment (ADVAN11 TRANS4) models which were based on first-order kinetics, with the exception of zero-order infusion processes.
Model selection and evaluation were based on several criteria: NONMEM’s objective function values (OFVs), parameter estimate precision (reflected by relative standard errors), IIV shrinkage, diagnostic fit plots, visual predictive checks, and bootstrap analysis. For nested model comparisons, a decrease in OFV (ΔOFV) exceeding 3.84 (for a χ^2 distribution with one degree of freedom, df) or 5.99 (for a χ^2 distribution with two df) indicated meaningful improvements at a significance level of p < 0.05. The diagnostic plots for model assessment include conditional weighted residuals (CWRES) against time and population predictions (PRED), as well as actual observations compared with both PRED and individual predictions. Visual predictive checks (VPC) were conducted by matching the observed concentrations to the 80% prediction intervals from 1000 simulations based on the final PK model. The variability in the final predictions was determined by calculating the median and 95% confidence intervals for the PK parameters from 2000 bootstrap samples.
Significant covariates affecting PK parameters were determined using stepwise selection, with inclusion at p < 0.01 (ΔOFV < −6.635) and exclusion at p < 0.001 (ΔOFV > 10.83) for one df. Covariates had to show statistical and clinical relevance. […]

[3] = human, in vivo; cited from earlier work
Description: Teicoplanin, along with the glycopeptide antibiotic vancomycin, has an important role in the treatment of Gram-positive bacterial infections, including those caused by methicillin-resistant Staphylococcus aureus (MRSA). […] Based on the European Medicines Agency’s summary of the product characteristics (SmPC) for teicoplanin, adults and the elderly with normal renal function have recommended specific do ...

[4] = cited from earlier work
Description: In the present study, the PK profile of teicoplanin in healthy adults was characterized using a three-compartment model. Typically, in studies with sparse sampling designs, the PK profile of teicoplanin is often delineated using one- [15, 16] or two-compartment models; however, previous studies using dense sampling approaches have also applied a three-compartment model. Such models are characterized by three distinct slopes when plotted on a graph with the y-axis representing a logarithmic scale, corresponding to the composition of three exponential equations ...

[5] = 12 mg/kg every 12 h x4, then 12 mg/kg daily; median CLCR 113 mL/min; cited from earlier work
[6] = human, in vivo; cited from earlier work; remark: listed apart in the source
Description: In the second simulation, the PTA was determined for different LD and MD regimens to satisfy both criteria: a Ctrough greater than 20 mg/L and an AUC/MIC ratio of at least 800. Adopting a similar approach to the first simulation, we used two distinct LD and MD combinations. The proportion of patients achieving both therapeutic targets was continuously assessed from days 3 to 7 following the initiation of treatment.

[7] = in vivo; cited from earlier work
Description: This study had several limitations. First, a small sample size of 12 subjects was insufficient to detect a variety of meaningful covariates, although eGFR and body weight were identified as significant factors. Thus, future studies with larger patient cohorts will be needed to develop more robust models. […] This decision, aimed at enhancing model stability and interpretability, involved employing the FOCE-I method and facing challenges with other estimation methods due to our ...

Question: What does the source list for teicoplanin?
Answer: t1/2λz, terminal elimination half-life ([1]; last 3 or 4 points, mean (CV%)): 54.6 (13.2%) h; AUCinf ([1]; mean (CV%)): 307 (15.4%) mg/L·h; AUClast ([1]; mean (CV%)): 273 (16.6%) mg/L·h; AUMCinf ([1]; mean (CV%)): 22,700 (14.8%) mg/L·h^2; AUMClast ([1]; mean (CV%)): 13,800 (16.0%) mg/L·h^2; CLNCA ([1]; mean (CV%)): 0.0105 (15.2%) L/h/kg; Clast ([1]; mean (CV%)): 0.431 (24.9%) mg/L; MRTinf ([1]; mean (CV%)): 74.0 (12.8%) h; VssNCA ([1]; mean (CV%)): 0.776 (19.6%) L/kg; AUCinf ([1]; median (IQR)): 305 (279–332) mg/L·h; AUClast ([1]; median (IQR)): 270 (247–302) mg/L·h; AUMCinf ([1]; median (IQR)): 22,300 (20,200–23,200) mg/L·h^2; AUMClast ([1]; median (IQR)): 13,800 (12,300–15,000) mg/L·h^2; CLNCA ([1]; median (IQR)): 0.0103 (0.00896–0.0117) L/h/kg; Clast ([1]; median (IQR)): 0.422 (0.348–0.470) mg/L; MRTinf ([1]; median (IQR)): 76.7 (68.0–80.7) h; Tlast ([1]; median (IQR)): 192 (169–194) h; VssNCA ([1]; median (IQR)): 0.734 (0.661–0.859) L/kg; t1/2λz, terminal elimination half-life ([1]; median (IQR)): 55.0 (51.9–58.6) h; Cmax ([1]; mean (CV%)): 32.1 (12.9%) mg/L; Cmax ([1]; median (IQR)): 30.9 (29.5–35.6) mg/L; Q2, bootstrap median (95% CI) ([2]; 2000 bootstrap samples): 4.45 (3.63–5.86) L/h; Q3, bootstrap median (95% CI) ([2]; 2000 bootstrap samples): 1.75 (1.44–2.13) L/h; V1, bootstrap median (95% CI) ([2]; 2000 bootstrap samples): 3.97 (3.15–4.62) L; V2, bootstrap median (95% CI) ([2]; 2000 bootstrap samples): 8.33 (7.07–9.85) L; θ1 (CL), bootstrap median (95% CI) ([2]; 2000 bootstrap samples): 0.693 (0.653–0.74) L/h; θ2, bootstrap median (95% CI) ([2]; 2000 bootstrap samples): 0.789 (0.422–1.16); θ7 (V3), bootstrap median (95% CI) ([2]; 2000 bootstrap samples): 69.7 (55.8–82.6) L; θ8, bootstrap median (95% CI) ([2]; 2000 bootstrap samples): 1.73 (0.67–2.44); CL typical value θ1, CL = θ1 × (CE/105.27)^θ2, estimate ([2]; final model estimate): 0.693 L/h; Q2 = θ4, intercompartmental clearance V1-V2, estimate ([2]; final model estimate): 4.45 L/h; Q3 = θ6, intercompartmental clearance V1-V3, estimate ([2]; final model estimate): 1.76 L/h; V1 = θ3, central volume of distribution, estimate ([2]; final model estimate): 3.96 L; V2 = θ5, first peripheral volume, estimate ([2]; final model estimate): 8.24 L; θ7, V3 = θ7 × (WT/67.85)^θ8, second peripheral volume, estimate ([2]; final model estimate): 69.8 L; θ8, exponent of weight on V3, estimate ([2]; final model estimate): 1.73; VSS typical value (V1 + V2 + V3) ([2]; healthy subjects): 82.0 L; CL, total clearance ([2]; mean (CV%)): 0.0107 (14.0%) L/h/kg; CL, total clearance ([2]; median (IQR)): 0.0104 (0.00961–0.0122) L/h/kg; AUC (dose/CL) ([2]; mean (CV%)): 299 (16.0%) mg/L·h; VC, central volume of distribution ([2]; mean (CV%)): 0.0644 (28.9%) L/kg; Vss, steady-state volume of distribution ([2]; mean (CV%)): 1.21 (23.0%) L/kg; AUC (dose/CL) ([2]; median (IQR)): 300 (263–316) mg/L·h; VC, central volume of distribution ([2]; median (IQR)): 0.0649 (0.0526–0.0733) L/kg; Vss, steady-state volume of distribution ([2]; median (IQR)): 1.24 (1.06–1.34) L/kg; 1st t1/2 ([2]; mean (CV%)): 0.345 (36.3%) h; 2nd t1/2 ([2]; mean (CV%)): 4.12 (22.2%) h; 3rd t1/2 ([2]; mean (CV%)): 103 (29.9%) h; 1st t1/2 ([2]; median (IQR)): 0.317 (0.289–0.417) h; 2nd t1/2 ([2]; median (IQR)): 4.23 (3.78–4.83) h; 3rd t1/2 ([2]; median (IQR)): 97.9 (83.1–116) h; elimination half-life [3]: 83 to 182 h; V1 [4]: 4.32 L; V2 [4]: 8.35 L; V3 [4]: 68.6 L; VSS [4]: 81.3 L; CL ([4]; mean 64 years, 69.1 kg, CLCR 72 mL/min): 0.490 L/h; steady-state Ctrough, median (range) [5]: 15.9 (8.8–29.9) mg/L; patients achieving AUC ≥800 mg/L·h [6]: 100%; linear PK range [7]: 2 to 25 mg/kg
